Experiment: Compound was tested for the inhibition of IL1-beta and interleukin-6-production
Type: functional

With `Nc1ncnc2c1ncn2[C@@H]1CC[C@@H](O)C1` the IC50 was 9 µM.
